US20190100534A1, “Cephem Compounds with Latent Reactive Groups” (Gladius Pharmaceuticals, Inc., priority 2017, published 2019)

Key:
Format in all cases: cell-based
[1] = tested on: Isogenic E. coli J58 strain carrying VIM-2; assay: MIC determination, isogenic E. coli strains; details: Escherichia coli, 18 h, read-out: Mimimum Inhibitory Concentrations, VIM-2
Method in brief: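 E. coli J53 transformed with pBC-SK(+) plasmid carrying synthesized VIM-2 gene, grown in LB to OD600 >0.1, adjusted to 0.08–0.1 OD600 in CAMH broth.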

[2] = tested on: Isogenic E. coli J58 strain carrying TEM-26; assay: MIC determination, isogenic E. coli strains; details: Escherichia coli, 18 h, read-out: Mimimum Inhibitory Concentrations, TEM-26
Method in brief: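 Broth microdilution in cation-adjusted Mueller-Hinton broth with 20 μM apo-transferrin, compound […] in twofold steps, inoculum from 0.5 McFarland suspension. E. coli J53 transformed with pBC-SK(+) encoding TEM-26; 18 h at 37° C, MIC as lowest concentration giving a clear well.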

E. coli J53 Alone = assay: MIC determination, isogenic E. coli strains; details: for MIC: Escherichia coli, J53ALONE, 18 h, read-out: Mimimum Inhibitory Concentrations, J53 Alone; for Mimimum Inhibitory Concentrations, J53 Alone: Table 4-2, CAMH broth, 20 μM Apo-Transferrin, 37° C., 18 hours
Method in brief: (§1)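 Broth microdilution in cation-adjusted Mueller-Hinton broth with 20 μM apo-transferrin, 2-fold compound series from 64 μg/mL. E. coli J53, alone or transformed with a pBC-SK(+) plasmid carrying the beta-lactamase gene (e.g. DHA-1), inoculated from 0.5 McFarland suspension; 18 h at 37° C; MIC = lowest concentration with clear well.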

[3] = tested on: Isogenic E. coli J58 strain carrying DHA-1; assay: MIC determination, isogenic E. coli strains; details: Escherichia coli, 18 h, read-out: Mimimum Inhibitory Concentrations, DHA-1
Method in brief: as §1

[4] = tested on: Pseudomonas aeruginosa PA-RR-(purple Fre D); assay: MIC determination; details: Pseudomonas aeruginosa, CAMH broth, 20 μM Apo-Transferrin, 37° C., 18 hours, read-out: Minimum Inhibitory Concentrations, PA-RR-(purple Fre D)
Method in brief: (§2)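 Using an iron-depleting medium (CAMH plus 20 μM apo-transferrin), organisms at 0.5 McFarland faced compound from 64 μg/mL downward in twofold steps. Readout: visual, after 18 h at 37 °C.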

[5] = tested on: Pseudomonas aeruginosa PA-RR-(G7305586); assay: MIC determination; details: Pseudomonas aeruginosa; PA-RR-(G7305586); CAMH broth, 20 μM Apo-Transferrin, 37° C., 18 hours; read-out: Minimum Inhibitory Concentrations, PA-RR-(G7305586)
Method in brief: as §2

[6] = tested on: Pseudomonas aeruginosa PA (RR-1); assay: MIC determination; details: Pseudomonas aeruginosa; PA (RR-1); CAMH broth, 20 μM Apo-Transferrin, 37° C., 18 hours; read-out: Minimum Inhibitory Concentrations, PA (RR-1)
Method in brief: as §2

[7] = tested on: Pseudomonas aeruginosa PA-RR-(98023895); assay: MIC determination; details: Pseudomonas aeruginosa; PA-RR-(98023895); CAMH broth, 20 μM Apo-Transferrin, 37° C., 18 hours; read-out: Minimum Inhibitory Concentrations, PA-RR-(98023895)
Method in brief: as §2

[8] = tested on: Pseudomonas aeruginosa PA (RR-2); assay: MIC determination; details: Pseudomonas aeruginosa; PA (RR-2); CAMH broth, 20 μM Apo-Transferrin, 37° C., 18 hours; read-out: Minimum Inhibitory Concentrations, PA (RR-2)
Method in brief: as §2

[9] = tested on: Pseudomonas aeruginosa PA-RR-(G7294437); assay: MIC determination; details: Pseudomonas aeruginosa; PA-RR-(G7294437); CAMH broth, 20 μM Apo-Transferrin, 37° C., 18 hours; read-out: Minimum Inhibitory Concentrations, PA-RR-(G7294437)
Method in brief: as §2

[10] = tested on: Isogenic E. coli J58 strain carrying CTX-M-15; assay: MIC determination, isogenic E. coli strains; details: Escherichia coli, 18 h, read-out: Mimimum Inhibitory Concentrations, CTX-M-15
Method in brief: (§3)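 Isogenic E. coli J53 carrying plasmid-encoded CTX-M-14 or CTX-M-15 (ampicillin-selected), standardized to 0.08-0.1 OD600, incubated overnight (18 h, 37° C.) in CAMH broth plus 20 μM apo-transferrin over 2-fold compound dilutions starting at 64 μg/mL. Lowest concentration with no visible growth recorded as MIC.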

[11] = tested on: Isogenic E. coli J58 strain carrying CTX-M-14; assay: MIC determination, isogenic E. coli strains; details: Escherichia coli, 18 h, read-out: Mimimum Inhibitory Concentrations, CTX-M-14
Method in brief: as §3

[12] = tested on: Isogenic E. coli J58 strain carrying SHV-1; assay: MIC determination, isogenic E. coli strains; details: Escherichia coli, 18 h, read-out: Mimimum Inhibitory Concentrations, SHV-1
Method in brief: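 MIC is the lowest compound concentration leaving a transparent well after overnight (18 h) incubation at 37 °C. The test strain was E. coli J53 expressing plasmid-borne SHV-1 beta-lactamase from pBC-SK(+), adjusted to 0.5 McFarland. Compounds were twofold serially diluted, starting at 64 μg/mL, in CAMH broth supplemented with 20 μM apo-transferrin.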

[13] = tested on: Isogenic E. coli J58 strain carrying KPC-2; assay: MIC determination, isogenic E. coli strains; details: Escherichia coli, 18 h, read-out: Mimimum Inhibitory Concentrations, KPC-2
Method in brief: (§4)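 Broth microdilution in cation-adjusted Mueller-Hinton broth with 20 μM apo-transferrin, compound at 64 down to […], inoculum set to 0.5 McFarland. E. coli J53 transformed with pBC-SK(+) carrying the synthetic beta-lactamase gene was used. Plates were incubated 18 h at 37 °C; MIC is the lowest concentration giving a clear well.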

[14] = tested on: Isogenic E. coli J58 strain carrying KPC-3; assay: MIC determination, isogenic E. coli strains; details: Escherichia coli, 18 h, read-out: Mimimum Inhibitory Concentrations, KPC-3
Method in brief: as §4

[15] = tested on: Isogenic E. coli J58 strain carrying IMP-1; assay: MIC determination, isogenic E. coli strains; details: Escherichia coli, 18 h, read-out: Mimimum Inhibitory Concentrations, IMP-1
Method in brief: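 Broth microdilution in cation-adjusted Mueller-Hinton broth with 20 μM apo-transferrin, compound serially diluted two-fold from 64 μg/mL, against E. coli J53 carrying plasmid-borne IMP-1. Inoculum adjusted to 0.5 McFarland; plates incubated 18 h at 37° C. MIC taken as lowest concentration giving a clear well.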

[16] = tested on: Isogenic E. coli J58 strain carrying NDM-1; assay: MIC determination, isogenic E. coli strains; details: Escherichia coli, 18 h, read-out: Mimimum Inhibitory Concentrations, NDM-1
Method in brief: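 E. coli J53 transformed with a pBC-SK(+) plasmid encoding NDM-1 was adjusted to 0.08-0.1 OD600. It was grown 18 h at 37° C in CAMH broth containing 20 μM apo-transferrin with twofold compound dilutions from 64 μg/mL. MIC was taken as the lowest concentration giving a transparent well.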

Row | Structure (SMILES) | MIC [1] [µg/mL] | MIC [2] [µg/mL] | MIC (E. coli J53 Alone) [µg/mL] | Mimimum Inhibitory Concentrations, J53 Alone (E. coli J53 Alone) [microgram/mL] | MIC [3] [µg/mL] | MIC [4] [µg/mL] | MIC [5] [µg/mL] | MIC [6] [µg/mL] | MIC [7] [µg/mL] | MIC [8] [µg/mL] | MIC [9] [µg/mL] | MIC [10] [µg/mL] | MIC [11] [µg/mL] | MIC [12] [µg/mL] | MIC [13] [µg/mL] | MIC [14] [µg/mL] | MIC [15] [µg/mL] | MIC [16] [µg/mL]
1 | CC(C)(O/N=C(\C(=O)N[C@@H]1C(=O)N2C(C(=O)O)=C(C=Cc3ccc(C[n+]4cccc(-c5ccc(O)c(O)c5)c4)cc3)CS[C@H]12)c1csc(N)n1)C(=O)O (mixture of isomers) [Compound 413, 1-(4-((E/Z)-2-((6R,7R)-7-((Z)-2-(2-aminothiazol-4-yl)-2-(((2-carboxypropan-2-yl)oxy)imino)acetamido)-2-carboxy-8-oxo-5-thia-1-azabicyclo[4.2.0]oct-2-en-3 yl)vinyl)benzyl)-3-(3,4-dihydroxyphenyl)pyridin-1-ium] | 0.5 | 1 | 0.25 | 0.25 | 0.13 | 2 | 8 | 4 | 4 | 2 | 1 | 2 | 2 | 2 | 8 | 4 | 64 | > 64
2 | Cc1c[n+](Cc2ccc(C=CC3=C(C(=O)O)N4C(=O)[C@@H](NC(=O)/C(=N\OC(C)(C)C(=O)O)c5csc(N)n5)[C@H]4SC3)cc2)ccc1-c1ccc(O)c(O)c1 (mixture of isomers) [Compound 422, 1-(4-((E/Z)-2-((6R,7R)-7-((Z)-2-(2-aminothiazol-4-yl)-2-(((2-carboxypropan-2-yl)oxy)imino)acetamido)-2-carboxy-8-oxo-5-thia-1-azabicyclo[4.2.0]oct-2-en-3-yl)vinyl)benzyl)-4-(3,4-dihydroxyphenyl)-3-methylpyridin-1-ium] | 1 | 4 | 0.25 | 0.25 | 0.25 | 1 | 16 | 4 | 8 | 2 | 2 | 4 | 4 | 2 | 16 | 8 | > 64 | > 64
3 | CC(C)(O/N=C(\C(=O)N[C@@H]1C(=O)N2C(C(=O)O)=C(C=Cc3ccc(C[N+]4(C)Cc5cc(O)c(O)cc5C4)cc3)CS[C@H]12)c1csc(N)n1)C(=O)O (mixture of isomers) [Compound 424, 2-(4-((E/Z)-2-((6R,7R)-7-((Z)-2-(2-aminothiazol-4-yl)-2-(((2-carboxypropan-2-yl)oxy)imino)acetamido)-2-carboxy-8-oxo-5-thia-1-azabicyclo[4.2.0]oct-2-en-3-yl)vinyl)benzyl)-5,6-dihydroxy-2-methylisoindolin-2-ium] | 2 | 4 | 0.25 | 0.25 | 0.5 | 2 | 8 | 4 | 8 | 4 | 0.25 | 2 | 1 | 2 | 32 | 8 | > 64 | > 64
4 | CC(C)(O/N=C(\C(=O)N[C@@H]1C(=O)N2C(C(=O)O)=C(C=Cc3ccc(C[N+](C)(C)Cc4ccc(O)c(O)c4)cc3)CS[C@H]12)c1csc(N)n1)C(=O)O (mixture of isomers) [Compound 426, N-(4-((E/Z)-2-((6R,7R)-7-((Z)-2-(2-aminothiazol-4-yl)-2-(((2-carboxypropan-2-yl)oxy)imino)acetamido)-2-carboxy-8-oxo-5-thia-1-azabicyclo[4.2.0]oct-2-en-3-yl)vinyl)benzyl)-1-(3,4-dihydroxyphenyl)-N,N-dimethylmethanaminium] | 8 | 8 | 1 | 1 | 0.5 | 1 | 4 | 4 | 8 | 2 | 0.5 | 0.5 | 0.5 | 0.5 | 64 | 8 | 32 | > 64
5 | CC(C)(O/N=C(\C(=O)N[C@@H]1C(=O)N2C(C(=O)O)=C(C=Cc3ccc(C[n+]4ccc(NC(=O)c5ccc(O)c(O)c5)cc4)cc3)CS[C@H]12)c1csc(N)n1)C(=O)O (mixture of isomers) [Compound 427, 1-(4-((E/Z)-2-((6R,7R)-7-((Z)-2-(2-aminothiazol-4-yl)-2-(((2-carboxypropan-2-yl)oxy)imino)acetamido)-2-carboxy-8-oxo-5-thia-1-azabicyclo[4.2.0]oct-2-en-3-yl)vinyl)benzyl)-4-(3,4-dihydroxybenzamido)pyridin-1-ium] | 1 | 2 | ≤ 0.06 | ≤0.06 | 1 | 0.25 | 8 | 4 | 4 | ≤ 0.06 | ≤ 0.06 | 1 | 1 | 1 | 16 | 4 | 16 | > 64
